Measurements taken from US20130310371A1 (priority 2012, published 2013).

System: rat
Assay: animal or person
Assay type: in vivo
Conditions: ip

## Cc1cnc(NC(=O)C2=C(O)c3ccccc3S(=O)(=O)N2C)s1 [meloxicam]
Rattus norvegicus, 3 h, read-out: ED50 (95% CI), applied alone
  ED50: 141 mg/kg
rat, in vivo
  analgesic effect in words: dose-dependent analgesic effect
